Test results: patent US12622909B2, “Allosteric EGFR inhibitors and methods of use thereof” (Dana-Farber Cancer Institute, Inc., priority 2019, dated 2026)
Where two headings read alike, the source gives them in different places.

Assays:
[1] = target: EGFR L858R/T790M mutant Ba/F3 cells (Homo sapiens, UniProt P00533, T790M/L858R, cells depend on it); experiment: Ba/F3 cell proliferation (Cell Titer Glo); format: cell-based, murine; details: 72 hours
Source text: All cell lines were maintained in RPMI 1640 (Cellgro; Mediatech Inc., Herndon, CA) supplemented with 10% FBS, 100 units/mL penicillin, 100 units/mL streptomycin. The EGFR I941R mutation was introduced via site directed mutagenesis using the Quick Change Site-Directed Mutagenesis kit (Stratagene; La Jolla, CA) according to the manufacturer's instructions. All constructs were confirmed by DNA sequencing. The constructs were shuttled into the retroviral vector JP1540 using the Cre-recombination system (Agilent Technologies, Santa Clara, CA). Ba/F3 cells were then infected with retrovirus per standard protocols, as described previously (Zhou, et al, Nature 2009). Stable clones were obtained by selection in puromycin (2 μg/ml).
Growth and inhibition of growth was assessed by the Cell Titer Glo assay (Promega, Madison, WI) and was performed according to the manufacturer's instructions. The Cell Titer Glo assay is a luminescence-based method used to determine the number of viable cells based on quantitation of the ATP present, which is directly proportional to the amount of metabolically active cells present. […] All experimental points were set up in triplicates in 384-well plates and all experiments were repeated at least three times. […] The curves were fitted using a non-linear regression model with a sigmoidal dose response.

[2] = target: EGFR L858R/T790M (Homo sapiens, UniProt P00533, L858R/T790M); experiment: HTRF-based EGFR biochemical assay (L858R/T790M); details: 100 μM ATP, enzyme 0.02 nM
Chain of EGFR L858R/T790M (P00533 25-1210 T790M/L858R): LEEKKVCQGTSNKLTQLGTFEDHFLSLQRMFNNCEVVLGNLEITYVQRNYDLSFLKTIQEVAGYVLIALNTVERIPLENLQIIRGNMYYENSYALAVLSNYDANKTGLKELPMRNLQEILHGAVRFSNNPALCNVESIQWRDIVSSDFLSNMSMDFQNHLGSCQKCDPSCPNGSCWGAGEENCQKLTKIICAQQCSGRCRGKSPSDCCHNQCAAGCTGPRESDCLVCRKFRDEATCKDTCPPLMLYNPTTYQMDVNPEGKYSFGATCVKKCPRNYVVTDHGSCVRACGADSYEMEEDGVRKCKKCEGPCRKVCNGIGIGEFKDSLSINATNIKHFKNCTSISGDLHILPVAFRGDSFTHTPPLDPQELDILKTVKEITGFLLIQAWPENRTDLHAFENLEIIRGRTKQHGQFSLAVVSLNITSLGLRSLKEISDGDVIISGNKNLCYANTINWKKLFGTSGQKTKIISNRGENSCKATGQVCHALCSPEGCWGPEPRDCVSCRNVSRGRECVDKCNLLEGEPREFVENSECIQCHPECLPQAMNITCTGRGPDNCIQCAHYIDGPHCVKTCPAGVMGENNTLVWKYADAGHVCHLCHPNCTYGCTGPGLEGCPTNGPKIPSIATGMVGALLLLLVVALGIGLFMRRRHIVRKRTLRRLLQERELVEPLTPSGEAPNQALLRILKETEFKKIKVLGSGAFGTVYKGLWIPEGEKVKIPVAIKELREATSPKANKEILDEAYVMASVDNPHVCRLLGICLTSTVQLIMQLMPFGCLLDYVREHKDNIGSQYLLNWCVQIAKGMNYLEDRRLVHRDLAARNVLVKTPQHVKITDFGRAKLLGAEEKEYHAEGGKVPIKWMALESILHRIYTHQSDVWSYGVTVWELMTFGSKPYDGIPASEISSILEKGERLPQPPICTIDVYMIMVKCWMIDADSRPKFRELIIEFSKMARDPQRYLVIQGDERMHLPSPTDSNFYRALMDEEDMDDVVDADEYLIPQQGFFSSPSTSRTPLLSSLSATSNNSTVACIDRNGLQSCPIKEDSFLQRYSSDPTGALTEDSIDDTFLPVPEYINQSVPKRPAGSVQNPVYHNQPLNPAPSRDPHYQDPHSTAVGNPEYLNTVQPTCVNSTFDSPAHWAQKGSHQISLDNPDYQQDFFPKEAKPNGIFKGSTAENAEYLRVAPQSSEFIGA
Experimental: (§1) EGFR biochemical activity measurements were carried out using the homogeneous time-resolved fluorescence (HTRF) assay (Cisbio). Inhibitors and DMSO normalizations were first dispensed to empty black low-volume 384-well plates (Corning) with D300 digital liquid dispenser (HP). All reactions were carried out at room temperature and solutions were added to plates with a Multidrop Combi Reagent Dispenser (ThermoFisher). The reaction mixture (10 μL final volume) contained 1 μM tyrosine kinase peptide-biotin substrate and mutant EGFR in a reaction buffer (50 mM HEPES pH 7.0, 5 mM MgCl2, 1 mM MnCl2, 0.01% BSA, 2 mM TCEP, 0.1 mM NaVO4). […] Enzyme reaction solution (2× concentrations, 5 μL) was added to 384-well plates containing compounds and incubated for 30 mins. Enzyme reactions were initiated with the addition of 5 μL of ATP to a final concentration of 100 μM and reacted for 20 mins.

[3] = target: EGFR L858R (Homo sapiens, UniProt P00533, L858R); experiment: HTRF-based EGFR biochemical assay (L858R); details: 100 μM ATP, enzyme 0.1 nM
Chain of EGFR L858R (P00533 25-1210 L858R): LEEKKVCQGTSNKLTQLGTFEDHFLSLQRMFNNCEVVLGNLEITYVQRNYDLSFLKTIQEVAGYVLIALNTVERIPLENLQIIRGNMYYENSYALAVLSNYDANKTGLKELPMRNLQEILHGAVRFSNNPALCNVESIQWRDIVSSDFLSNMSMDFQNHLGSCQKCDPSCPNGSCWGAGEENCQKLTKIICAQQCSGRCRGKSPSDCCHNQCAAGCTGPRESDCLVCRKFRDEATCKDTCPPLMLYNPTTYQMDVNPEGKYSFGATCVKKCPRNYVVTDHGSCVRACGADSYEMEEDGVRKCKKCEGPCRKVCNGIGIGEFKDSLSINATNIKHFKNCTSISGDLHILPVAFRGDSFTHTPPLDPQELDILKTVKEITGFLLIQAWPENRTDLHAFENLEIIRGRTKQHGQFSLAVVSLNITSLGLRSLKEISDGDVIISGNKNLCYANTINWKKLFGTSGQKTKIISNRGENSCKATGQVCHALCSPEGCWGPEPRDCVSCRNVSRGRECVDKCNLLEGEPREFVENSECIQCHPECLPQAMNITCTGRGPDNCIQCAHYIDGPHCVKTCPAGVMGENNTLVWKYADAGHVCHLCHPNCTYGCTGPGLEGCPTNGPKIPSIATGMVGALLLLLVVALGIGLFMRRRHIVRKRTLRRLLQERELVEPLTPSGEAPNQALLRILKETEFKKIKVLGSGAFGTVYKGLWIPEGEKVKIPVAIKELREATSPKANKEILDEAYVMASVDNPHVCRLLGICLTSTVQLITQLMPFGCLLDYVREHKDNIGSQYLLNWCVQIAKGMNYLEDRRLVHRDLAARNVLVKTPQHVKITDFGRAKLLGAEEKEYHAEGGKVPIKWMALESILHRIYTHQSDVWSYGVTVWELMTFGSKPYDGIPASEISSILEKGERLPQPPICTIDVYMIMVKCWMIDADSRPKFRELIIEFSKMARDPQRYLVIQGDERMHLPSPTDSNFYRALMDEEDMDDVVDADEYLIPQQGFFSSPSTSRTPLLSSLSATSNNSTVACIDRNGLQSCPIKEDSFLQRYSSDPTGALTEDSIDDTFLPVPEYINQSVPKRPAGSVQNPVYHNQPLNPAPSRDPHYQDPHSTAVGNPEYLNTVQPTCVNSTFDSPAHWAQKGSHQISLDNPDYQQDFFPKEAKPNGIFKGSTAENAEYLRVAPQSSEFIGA
Experimental: as §1, with “20 mins. Reactions were quenched with the addition of 10 μL of phospho-tyrosine antibody-Europium(III) cryptate (1-to-180 volume ratio) and Streptavidin-XL665 (46.7 nM) in EDTA-containing detection buffer, then incubated at room temperature for 1 hour, and read with a PHERAstar plate reader (excitation=337 nm, emission=620 nm and 665 nm).” for “20 mins.”

[4] = in combination with 1 μg/ml cetuximab, read-out: Cell IC50 BaF3 L858R/T790M compound + cetuximab
[5] = single agent, read-out: Cell IC50 EGFR BaF3 L858R/T790M

Chain of EGFR L858R/T790M mutant Ba/F3 cells (P00533 whole entry T790M/L858R): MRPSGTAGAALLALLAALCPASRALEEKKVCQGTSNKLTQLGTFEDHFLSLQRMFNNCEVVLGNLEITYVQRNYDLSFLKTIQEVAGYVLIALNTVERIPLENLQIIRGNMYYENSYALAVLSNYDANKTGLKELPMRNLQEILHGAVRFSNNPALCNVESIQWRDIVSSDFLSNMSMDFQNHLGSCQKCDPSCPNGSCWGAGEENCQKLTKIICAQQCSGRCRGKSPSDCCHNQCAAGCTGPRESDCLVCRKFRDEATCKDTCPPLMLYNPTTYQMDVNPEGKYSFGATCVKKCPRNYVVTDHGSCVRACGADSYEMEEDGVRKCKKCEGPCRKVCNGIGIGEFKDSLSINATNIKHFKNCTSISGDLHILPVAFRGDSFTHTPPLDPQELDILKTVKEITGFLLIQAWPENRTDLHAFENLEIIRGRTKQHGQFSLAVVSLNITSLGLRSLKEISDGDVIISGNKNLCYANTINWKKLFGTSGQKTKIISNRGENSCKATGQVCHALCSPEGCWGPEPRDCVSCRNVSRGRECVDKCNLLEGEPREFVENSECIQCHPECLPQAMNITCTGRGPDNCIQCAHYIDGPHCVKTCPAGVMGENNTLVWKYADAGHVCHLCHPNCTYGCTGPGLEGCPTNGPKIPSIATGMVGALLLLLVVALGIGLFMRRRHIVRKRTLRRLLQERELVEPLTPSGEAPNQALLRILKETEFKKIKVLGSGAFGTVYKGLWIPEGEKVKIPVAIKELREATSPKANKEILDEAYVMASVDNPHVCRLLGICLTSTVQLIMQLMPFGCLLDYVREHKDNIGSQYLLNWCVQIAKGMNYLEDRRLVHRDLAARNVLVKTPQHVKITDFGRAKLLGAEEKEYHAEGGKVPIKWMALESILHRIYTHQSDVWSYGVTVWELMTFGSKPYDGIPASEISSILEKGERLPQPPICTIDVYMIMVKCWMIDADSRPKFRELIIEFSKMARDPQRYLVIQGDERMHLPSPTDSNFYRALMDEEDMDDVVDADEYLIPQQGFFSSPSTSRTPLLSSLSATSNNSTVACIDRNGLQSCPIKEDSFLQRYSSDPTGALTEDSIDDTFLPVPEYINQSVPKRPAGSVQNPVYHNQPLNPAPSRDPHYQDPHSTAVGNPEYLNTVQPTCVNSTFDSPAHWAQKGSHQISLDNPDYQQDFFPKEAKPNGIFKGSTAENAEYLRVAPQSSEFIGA

Row | Compound | GI50 [1, 4] [nM] | GI50 [1, 5] [nM] | IC50 [2] [nM] | IC50 [3] [nM]
1 | CN1CCC(c2ccc(-c3ccc4ncn(C(C(=O)Nc5nccs5)c5ccccn5)c(=O)c4c3F)cc2)CC1 (stereo not shown) [Compound 068, 2-(5-Fluoro-6-(4-(1-methylpiperidin-4-yl)phenyl)-4-oxoquinazolin-3(4H)-yl)-2-(pyridin-2-yl)-N-(thiazol-2-yl)-acetamide] | 18 | 1560 | 0.7 | 5
2 | CN1CCC(c2ccc(-c3ccc4ncn(C(C(=O)Nc5nccs5)c5ccccc5F)c(=O)c4c3F)cc2)CC1 (stereo not shown) [Compound 075, 2-(5-Fluoro-6-(4-(1-methylpiperidin-4-yl)phenyl)-4-oxoquinazolin-3-(4H)-yl)-2-(2-fluorophenyl)-N-(thiazol-2-yl)acetamide] | 7 | 1030 | 0.1 | 1
3 | CN1CCN(c2ccc(-c3ccc4ccn(C(C(=O)Nc5nccs5)c5ccccc5)c(=O)c4c3)cc2)CC1 (stereo not shown) [Compound 019, 2-(7-(4-(4-Methylpiperazin-1-yl)-phenyl)-1-oxoisoquinolin-2(1H)-yl)-2-phenyl-N-(thiazol-2-yl)acetamide] | 44 | 1850 | 5 | 35
4 | CN1CCC(c2ccc(-c3ccc4cnn(C(C(=O)Nc5nccs5)c5ccccc5)c(=O)c4c3)cc2)CC1 (stereo not shown) [Compound 042, 2-(7-(4-(1-Methylpiperidin-4-yl)-phenyl)-1-oxophtharazin-2(1H)-yl)-2-phenyl-N-(thiazol-2-yl)acetamide] | 250 | 1460 | 4 | 35
5 | CN1CCN(c2ccc(-c3ccc4ncn(C(C(=O)Nc5nccs5)c5ccccc5)c(=O)c4n3)cc2)CC1 (stereo not shown) [Compound 072, 2-(6-(4-(4-Methylpiperazin-1-yl)-phenyl)-4-oxopyrido[3,2-d]-pyrimidin-3(4H)-yl)-2-phenyl-N-(thiazol-2-yl)acetamide] | 55 | 1600 | 1 | 12
6 | Cc1nc2cc(-c3ccc(C4CCN(C)CC4)cc3)ccc2c(=O)n1C(C(=O)Nc1nccs1)c1ccccc1 (stereo not shown) [Compound 054, 2-(2-Methyl-7-(4-(1-methylpiperidin-4-yl)phenyl)-4-oxoquinazolin-3(4H)-yl)-2-phenyl-N-(thiazol-2-yl)acetamide] | 410 | 2480 | 42 | 91
7 | CN1CCC(c2ccc(-c3ccc4c(=O)n(C(C(=O)Nc5nccs5)c5cccc(F)c5)ccc4c3)cc2)CC1 (stereo not shown) [Compound 025, 2-(3-Fluorophenyl)-2-(6-(4-(1-methyl-piperidin-4-yl)phenyl)-1-oxo-isoquinolin-2(1H)-yl)-N-(thiazol-2-yl)-acetamide] | 20 | 900 | 3 | 5
8 | Cc1nc2cc(-c3ccc(N4CCN(C)CC4)cc3)ccc2c(=O)n1C(C(=O)Nc1nccs1)c1ccccc1 (stereo not shown) [Compound 055, 2-(2-Methyl-7-(4-(4-methylpiperazin-1-yl)phenyl)-4-oxoquinazolin-3(4H)-yl)-2-phenyl-N-(thiazol-2-yl)-acetamide] | 1500 | 3940 | 79 | 264
9 | O=C(Nc1nccs1)C(c1ccccc1)n1cnc2cc(Br)ccc2c1=O (stereo not shown) [Compound 001, 2-(7-Bromo-4-oxoquinazolin-3(4H)-yl)-2-phenyl-N-(thiazol-2-yl)acetamide] | 8300 | > 10000 | 62 | 1260
10 | CN1CCC(c2ccc(-c3cc(F)c4ncn(C(C(=O)Nc5nccs5)c5ccccc5)c(=O)c4c3)cc2)CC1 (stereo not shown) [Compound 060, 2-(8-Fluoro-6-(4-(1-methylpiperidin-4-yl)phenyl)-4-oxoquinazolin-3-(4H)-yl)-2-phenyl-N-(thiazol-2-yl)-acetamide] | 9 | 710 | 0.6 | 4
11 | O=C(Nc1nccs1)C(c1cccc(F)c1)n1ccc2cc(Br)ccc2c1=O (stereo not shown) [Compound 008, 2-(6-Bromo-1-oxoisoquinolin-2(1H)-yl)-2-(3-fluorophenyl)-N-(thiazol-2-yl)acetamide] | 2500 | > 10000 | 64 | > 1000
12 | Cc1nc2ccc(-c3ccc(C4CCN(C)CC4)cc3)cc2c(=O)n1C(C(=O)Nc1nccs1)c1ccccc1 (stereo not shown) [Compound 044, 2-(2-Methyl-6-(4-(1-methylpiperidin-4-yl)phenyl)-4-oxoquinazolin-3(4H)-yl)-2-phenyl-N-(thiazol-2-yl)acetamide] | 790 | 2460 | 283 | > 1000
13 | CN1CCC(c2ccc(-c3ccc4ncn(C(C(=O)Nc5nccs5)c5cccnc5)c(=O)c4c3)cc2)CC1 (stereo not shown) [Compound 065, 2-(6-(4-(1-Methylpiperidin-4-yl)-phenyl)-4-oxoquinazolin-3(4H)-yl)-2-(pyridin-3-yl)-N-(thiazol-2-yl)-acetamide] | 380 | 7810 | 2 | 29
14 | O=C(Nc1nccs1)C(c1ccccc1)n1cnc2cc(Br)c(F)cc2c1=O (stereo not shown) [Compound 005, 2-(7-Bromo-6-fluoro-4-oxoquinazolin-3(4H)-yl)-2-phenyl-N-(thiazol-2-yl)acetamide] | 4800 | > 10000 | 91 | > 1000
15 | CN1CCN(c2ccc(-c3ccc4ncn(C(C(=O)Nc5nccs5)c5cccc(F)c5)c(=O)c4c3)cc2)CC1 (stereo not shown) [Compound 031, 2-(3-Fluorophenyl)-2-(6-(4-(4-methyl-piperazin-1-yl)phenyl)-4-oxo-quinazolin-3(4H)-yl)-N-(thiazol-2-yl)-acetamide] | 10 | 1350 | 0.2 | 2
16 | CN1CCC(c2ccc(-c3ccc4ncn(C(C(=O)Nc5ccccn5)c5cccc(F)c5)c(=O)c4c3F)cc2)CC1 (stereo not shown) [Compound 074, 2-(5-Fluoro-6-(4-(1-methylpiperidin-4-yl)phenyl)-4-oxoquinazolin-3-(4H)-yl)-2-(3-fluorophenyl)-N-(pyridin-2-yl)acetamide] | 22 | 2350 | 0.6 | 6
17 | O=C(Nc1nccs1)C(c1ccccc1)n1ncc2ccc(Br)cc2c1=O (stereo not shown) [Compound 041, 2-(7-Bromo-1-oxophthalazin-2(1H)-yl)-2-phenyl-N-(thiazol-2-yl)-acetamide] | > 10000 | > 10000 | 31 | > 1000
18 | CN1CCN(c2ccc(-c3ccc4ncn(C(C(=O)Nc5nccs5)c5ccccc5F)c(=O)c4c3)cc2)CC1 (stereo not shown) [Compound 067, 2-(2-fluorophenyl)-2-(6-(4-(4-methylpiperazin-1-yl)phenyl)-4-oxo-quinazolin-3(4H)-yl)-N-(thiazol-2-yl)-acetamide] | 41 | 3960 | 1 | 13
19 | CN1CCN(c2ccc(-c3cnc4c(=O)n(C(C(=O)Nc5nccs5)c5ccccc5)cnc4c3)cc2)CC1 (stereo not shown) [Compound 057, 2-(7-(4-(4-Methylpiperazin-1-yl)-phenyl)-4-oxopyrido[3,2-d]-pyrimidin-3(4H)-yl)-2-phenyl-N-(thiazol-2-yl)acetamide] | 700 | 4730 | 7 | 50
